Test results as given in PMC8949104, “Bioactivity-Guided Separation of Anti-Cholinesterase Alkaloids from Uncaria rhynchophlly (Miq.) Miq. Ex Havil Based on HSCCC Coupled with Molecular Docking” (Molecules, 2022).
Where two headings read alike, the source gives them in different places.

Experiments:
Acetyl-cholinesterase = biological target: T1, Acetyl-cholinesterase (Electrophorus electricus, UniProt O42275); assay: biochemical; format: biochemical
T1 construct: Acetyl-cholinesterase was from electric eel; purchased Sigma-Aldrich; host or cells: electric eel (natural source)
T1 sequence (O42275 24-633): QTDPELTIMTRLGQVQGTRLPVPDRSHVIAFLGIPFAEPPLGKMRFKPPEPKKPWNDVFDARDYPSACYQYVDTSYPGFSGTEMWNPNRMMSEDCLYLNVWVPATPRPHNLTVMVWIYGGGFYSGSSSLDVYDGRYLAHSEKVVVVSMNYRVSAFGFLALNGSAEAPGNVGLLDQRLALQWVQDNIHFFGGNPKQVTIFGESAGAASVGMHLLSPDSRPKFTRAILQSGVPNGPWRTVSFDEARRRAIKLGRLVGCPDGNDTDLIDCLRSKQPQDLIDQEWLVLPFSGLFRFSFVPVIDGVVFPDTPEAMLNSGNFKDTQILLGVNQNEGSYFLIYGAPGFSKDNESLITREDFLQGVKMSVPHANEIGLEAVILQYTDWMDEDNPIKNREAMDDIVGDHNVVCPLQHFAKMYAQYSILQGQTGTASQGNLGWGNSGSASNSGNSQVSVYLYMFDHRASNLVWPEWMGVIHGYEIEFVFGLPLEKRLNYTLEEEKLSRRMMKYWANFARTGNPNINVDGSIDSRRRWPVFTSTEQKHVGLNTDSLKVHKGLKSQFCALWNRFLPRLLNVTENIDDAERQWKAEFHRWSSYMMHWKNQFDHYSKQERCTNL
Source text: (§1) HPLC-grade methanol and acetonitrile were purchased from Shanghai, China (Sinopharm Chemical Reagent Co., Ltd., Shanghai, China). Acetyl-cholinesterase was from electric eel, butyryl-cholinesterase was from equine serum, and acetylthiocholine iodide was purchased from Sigma-Aldrich (Sigma-Aldrich company, St. Louis, MO, USA). […] AB-8 macroporous resin was purchased from Yuanye (Yuanye Biochemical Technology Co., Ltd., Shanghai, China).
(§2) The Ellman method was used to determine the inhibitory activity of acetyl-cholinesterase and butyryl-cholinesterase of each monomer compound. Briefly, 150 µL of PBS buffer solution (pH = 7.4), 10 µL of the tested compound solution, and 20 µL of acetyl-cholinesterase or butyryl-cholinesterase solution (concentration of 0.2 U/mL) were transferred to a 96-well plate and placed in a gas bath constant temperature oscillator at 37 °C for 15 min. […] Then, 10 µL PBS was added to the blank group to exclude other irrelevant factors from affecting the experimental results and ensure the rationality of the experimental results. […] Inhibition Rate = (Anegative control group − Atest group/Anegative control group − Ablank group) × 100%(2)

Butyryl-cholinesterase = biological target: T2, Butyryl-cholinesterase (Equus caballus, UniProt P81908); assay: biochemical; format: biochemical; settings: for IC50: Ellman method, 37 °C, PBS pH 7.4, 412 nm, read-out: IC50 Value Butyrylcholinesterase
T2 construct: butyryl-cholinesterase was from equine serum; purchased Sigma-Aldrich; host or cells: equine serum
T2 sequence (P81908 whole entry): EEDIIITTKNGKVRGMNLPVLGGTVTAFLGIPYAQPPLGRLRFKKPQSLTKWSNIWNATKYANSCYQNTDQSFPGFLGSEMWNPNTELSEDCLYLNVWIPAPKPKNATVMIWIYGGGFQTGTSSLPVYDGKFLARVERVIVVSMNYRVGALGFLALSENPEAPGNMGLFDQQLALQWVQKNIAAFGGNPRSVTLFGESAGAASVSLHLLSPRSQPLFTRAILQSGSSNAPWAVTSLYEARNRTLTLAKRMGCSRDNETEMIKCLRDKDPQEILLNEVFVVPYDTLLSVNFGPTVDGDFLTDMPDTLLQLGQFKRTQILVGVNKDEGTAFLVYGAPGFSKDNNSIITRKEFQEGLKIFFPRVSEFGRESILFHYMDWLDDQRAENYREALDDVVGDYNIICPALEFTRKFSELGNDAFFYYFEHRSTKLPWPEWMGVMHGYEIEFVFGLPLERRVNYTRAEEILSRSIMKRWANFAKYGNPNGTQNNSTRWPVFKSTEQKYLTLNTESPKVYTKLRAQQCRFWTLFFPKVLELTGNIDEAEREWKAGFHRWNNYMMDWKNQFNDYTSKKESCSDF
Source text: as §1, §2

[1] = Ellman method, 37 °C, PBS pH 7.4, 412 nm, read-out: IC50 Value Acetylcholinesterase

Structure (SMILES) | IC50 (Acetyl-cholinesterase) [µM] | IC50 (Butyryl-cholinesterase) [µM] | IC50 (Acetyl-cholinesterase; [1]) [µM] | acetyl-cholinesterase inhibitory activity (in words) (Acetyl-cholinesterase; qualitative statement) | butyryl-cholinesterase inhibitory activity (in words) (Butyryl-cholinesterase; qualitative statement)
COC(=O)C1=COC(OC2OC(CO)C(O)C(O)C2O)C2C3CN4CCc5c([nH]c6ccccc56)C4(CC12)O3 (stereo not drawn) [Compound 4, cadambine] | 26.1 ± 2.12 | 30.7 ± 0.69 |  |  | 
COC(=O)C1=COC(OC2OC(CO)C(O)C(O)C2O)C2C(O)CN3CCc4c([nH]c5ccccc45)C3CC12 (stereo not drawn) [Compound 5, 3α-dihydrocadambine] |  | 33.3 ± 0.51 | 37 ± 1.57 |  | 
C=CC1C2C[C@H]3c4[nH]c5ccccc5c4CCN3C(=O)C2=CO[C@H]1O[C@H]1O[C@H](CO)[C@@H](O)[C@H](O)[C@H]1O (stereo partly drawn) [Compound 2, vincosamide] | 12.4 ± 0.86 | 23.18 ± 0.14 |  |  | 
C=C[C@H]1C(O[C@H]2O[C@H](CO)[C@@H](O)[C@H](O)[C@H]2O)OC=C2C(=O)N3CC[C@]4(C(=O)Nc5ccccc54)[C@H]3C[C@H]21 (stereo partly drawn) [Compound 1, 7-epi-javaniside] |  | 2.13 ± 0.1 | 2.85 ± 0.5 | close to that of the positive drug | close to that of the positive drug
C=CC1C2C[C@@H]3c4[nH]c5ccccc5c4CCN3C(=O)C2=CO[C@H]1O[C@H]1O[C@H](CO)[C@@H](O)[C@H](O)[C@H]1O (stereo partly drawn) [Compound 3, strictosamide] | 46.6 ± 0.58 | 6.47 ± 0.72 |  |  | 
